Measurements published in patent publication US6727264B1 (Synaptic Pharmaceutical Corporation, priority 2001, dated 2004).

Target: rat MCH-1 (Rattus norvegicus, UniProt P97639)
Test: Radioligand binding assay at cloned rat MCH1 receptor ([3H] Compound A)
Set-up: host or cells: Peak rapid 293 (Peakr293) cells, transient calcium phosphate transfection, membranes
Details: cloned rat MCH1 receptor; 0.08 nM [3H] Compound A; Peakr293 cell membranes; read-out: Ki (nM) rMCH1

Chain of rat MCH-1 (P97639 whole entry): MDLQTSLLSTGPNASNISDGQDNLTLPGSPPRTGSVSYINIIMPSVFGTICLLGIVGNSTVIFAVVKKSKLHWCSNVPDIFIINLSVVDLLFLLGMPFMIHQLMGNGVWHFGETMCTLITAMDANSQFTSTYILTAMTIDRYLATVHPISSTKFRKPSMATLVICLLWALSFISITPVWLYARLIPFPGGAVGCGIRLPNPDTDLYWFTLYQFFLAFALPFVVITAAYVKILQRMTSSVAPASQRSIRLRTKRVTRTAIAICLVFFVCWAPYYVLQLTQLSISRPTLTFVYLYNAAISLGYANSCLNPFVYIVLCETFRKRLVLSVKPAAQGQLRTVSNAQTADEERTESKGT

Row | Ki [nM] | SMILES
1 | 52.2 | COC(=O)c1ccc2c(CN3CCC(c4cccc(NC(=O)C(C)C)c4)CC3)c[nH]c2c1 [Example 498, METHYL 3-({4-[3-(ISOBUTYRYLAMINO)PHENYL]-1-PIPERIDINYL}METHYL)-1H-INDOLE-6-CARBOXYLATE]
2 | 11.9 | CC(C)C(=O)Nc1cccc(C2CCN(Cc3c[nH]c4cc(C(F)(F)F)ccc34)CC2)c1 [Example 499]
3 | 29.4 | CC(C)C(=O)Nc1cccc(C2CCN(Cc3cn(-c4cccnc4)c4ccccc34)CC2)c1 [Example 500]
4 | 22.1 | CC(C)C(=O)Nc1cccc(C2CCN(Cc3cn(-c4ccccn4)c4ccccc34)CC2)c1 [Example 501]
5 | 4.6 | CC(C)C(=O)Nc1cccc(C2CCN(Cc3cn(-c4ccccc4)c4cc(F)ccc34)CC2)c1 [Example 502]
6 | 6 | CC(C)C(=O)Nc1cccc(C2CCN(Cc3cn(-c4ccccc4)c4cc(Cl)ccc34)CC2)c1 [Example 503]
7 | 22.5 | CC(C)C(=O)Nc1cccc(C2CCN(Cc3cn(-c4ccccc4)c4cc(OCc5ccccc5)ccc34)CC2)c1 [Example 504]
8 | 6.5 | Cc1ccc2c(CN3CCC(c4cccc(NC(=O)C(C)C)c4)CC3)cn(-c3ccccc3)c2c1 [Example 505]
9 | 2.5 | COC(=O)c1ccc2c(CN3CCC(c4cccc(NC(=O)C(C)C)c4)CC3)cn(-c3ccccc3)c2c1 [Example 506, METHYL 3-({4-[3-(ISOBUTYRYLAMINO)PHENYL]-1-PIPERIDINYL}METHYL)-1-PHENYL-1H-INDOLE-6-CARBOXYLATE]
10 | 57.9 | CC(C)C(=O)Nc1cccc(C2CCN(Cc3c[nH]c4cc([N+](=O)[O-])ccc34)CC2)c1 [Example 507]
11 | 8.5 | CC(C)C(=O)Nc1cccc(C2CCN(Cc3cn(-c4ccccc4)c4cc(C(F)(F)F)ccc34)CC2)c1 [Example 508]
12 | 24.3 | Cc1cccc2c(CN3CCC(c4cccc(NC(=O)C(C)C)c4)CC3)cn(-c3ccccc3)c12 [Example 509]
13 | 305 | COc1cccc2c(CN3CCC(c4cccc(NC(=O)C(C)C)c4)CC3)c[nH]c12 [Example 510]
14 | 6 | COc1cccc2c(CN3CCC(c4cccc(NC(=O)C(C)C)c4)CC3)cn(-c3ccccc3)c12 [Example 511]
15 | 42.7 | CC(C)C(=O)Nc1cccc(C2CCN(Cc3cn(-c4ccccc4)c4c(Cl)cccc34)CC2)c1 [Example 512]
16 | 179 | CC(C)C(=O)Nc1cccc(C2CCN(Cc3c[nH]c4c([N+](=O)[O-])cccc34)CC2)c1 [Example 513]
17 | 151 | O=C(Nc1cccc(C2CCN(Cc3c[nH]c4c([N+](=O)[O-])cccc34)CC2)c1)C1CC1 [Example 514]
18 | 296 | CCC(=O)Nc1cccc(C2CCN(Cc3c[nH]c4c([N+](=O)[O-])cccc34)CC2)c1 [Example 515]
19 | 90.9 | CC(C)C(=O)Nc1cccc(C2CCN(Cc3c[nH]c4c(-c5ccccc5F)cccc34)CC2)c1 [Example 516]
20 | 287 | CC(C)C(=O)Nc1cccc(C2CCN(Cc3c[nH]c4c(-c5ccc6ccccc6c5)cccc34)CC2)c1 [Example 517]
21 | 226 | CCc1ccc(-c2cccc3c(CN4CCC(c5cccc(NC(=O)C(C)C)c5)CC4)c[nH]c23)cc1 [Example 518]
22 | 80.9 | Cc1ccccc1-c1ccc2c(CN3CCC(c4cccc(NC(=O)C(C)C)c4)CC3)c[nH]c2c1 [Example 519]
23 | 135 | CC(C)C(=O)Nc1cccc(C2CCN(Cc3c[nH]c4c(-c5cccc(Cl)c5)cccc34)CC2)c1 [Example 520]
24 | 27 | CC(C)C(=O)Nc1cccc(C2CCN(Cc3c[nH]c4c(-c5cccc([N+](=O)[O-])c5)cccc34)CC2)c1 [Example 521]
25 | 247 | CC(=O)c1ccc(-c2cccc3c(CN4CCC(c5cccc(NC(=O)C(C)C)c5)CC4)c[nH]c23)cc1 [Example 522]
26 | 54.8 | CCc1ccc(-c2ccc3c(CN4CCC(c5cccc(NC(=O)C(C)C)c5)CC4)c[nH]c3c2)cc1 [Example 523]
27 | 199 | Cc1ccccc1-c1cccc2c(CN3CCC(c4cccc(NC(=O)C(C)C)c4)CC3)c[nH]c12 [Example 524]

Row | Ki [nM] | SMILES
28 | 91.4 | CC(C)C(=O)Nc1cccc(C2CCN(Cc3c[nH]c4cc(-c5ccccc5F)ccc34)CC2)c1 [Example 525]
29 | 411 | CC(C)C(=O)Nc1cccc(C2CCN(Cc3c[nH]c4ccc(Br)cc34)CC2)c1 [Example 526]
30 | 226 | Cc1ccc(Oc2ccc3[nH]cc(CN4CCC(c5cccc(NC(=O)C(C)C)c5)CC4)c3c2)cc1 [Example 527]
31 | 115 | CC(C)C(=O)Nc1cccc(C2CCN(CCCCCCC(=O)c3ccccc3)CC2)c1 [Example 528]
32 | 42.4 | CC(C)C(=O)Nc1cccc(C2CCN(CCCCCC(=O)c3ccccc3)CC2)c1 [Example 529]
33 | 105 | CCC(=O)Nc1cccc(C2CCN(CCCC(=O)c3ccc(OC)cc3)CC2)c1 [Example 531]
34 | 8.7 | CCC(=O)Nc1cccc(C2CCN(CCCC(=O)c3ccc(Cl)cc3)CC2)c1 [Example 532]
35 | 10.6 | CCC(=O)Nc1cccc(C2CCN(CCCC(=O)c3ccc(Br)cc3)CC2)c1 [Example 533]
36 | 155 | CCC(=O)Nc1cccc(C2CCN(CCCC(=O)c3ccc(C(C)(C)C)cc3)CC2)c1 [Example 534]
37 | 28.1 | CCC(=O)Nc1cccc(C2CCN(CCCC(=O)c3ccc(F)cc3)CC2)c1 [Example 535]
38 | 150 | CCC(=O)Nc1cccc(C2CCN(CCCC(=O)c3ccc(Oc4ccccc4)cc3)CC2)c1 [Example 536]
39 | 67.7 | CC(C)c1ccc(C(=O)CCCN2CCC(c3cccc(NC(=O)C4CC4)c3)CC2)cc1 [Example 537]
40 | 36.3 | COc1ccc(C(=O)CCCN2CCC(c3cccc(NC(=O)C4CC4)c3)CC2)cc1 [Example 538]
41 | 268 | O=C(CCCN1CCC(c2cccc(NC(=O)C3CC3)c2)CC1)c1ccc(Oc2ccccc2)cc1 [Example 539]
42 | 172 | CCC(=O)Nc1cccc(C2CCN(CCCC(=O)c3ccc(C(C)C)cc3)CC2)c1 [Example 540]
43 | 319 | CC(C)(C)c1ccc(C(=O)CCCN2CCC(c3cccc(NC(=O)C4CC4)c3)CC2)cc1 [Example 541]
44 | 31.3 | CCC(=O)Nc1cccc(C2CCN(CCCC(=O)c3ccc(C)cc3)CC2)c1 [Example 542]
45 | 27.6 | CCC(=O)Nc1cccc(C2CCN(CCCC(=O)c3ccc(C)c(C)c3)CC2)c1 [Example 543]
46 | 16.2 | O=C(CCCN1CCC(c2cccc(NC(=O)C3CC3)c2)CC1)c1ccc(Br)cc1 [Example 544]
47 | 52 | CCC(=O)Nc1cccc(C2CCN(CCCCC(=O)c3ccc(F)cc3)CC2)c1 [Example 545]
48 | 87.9 | Cc1ccc(C(=O)CCCN2CCC(c3cccc(NC(=O)C4CC4)c3)CC2)cc1C [Example 546]
49 | 75.5 | Cc1ccc(C(=O)CCCN2CCC(c3cccc(NC(=O)C4CC4)c3)CC2)cc1 [Example 547]
50 | 126 | O=C(CCCN1CCC(c2cccc(NC(=O)C3CC3)c2)CC1)c1ccc(F)cc1 [Example 548]
51 | 39.7 | O=C(CCCCN1CCC(c2cccc(NC(=O)C3CC3)c2)CC1)c1cccc(F)c1 [Example 549]
52 | 60.9 | CCC(=O)Nc1cccc(C2CCN(CCCCC(=O)c3ccc(C(F)(F)F)cc3)CC2)c1 [Example 550]
53 | 21.6 | O=C(CCCCN1CCC(c2cccc(NC(=O)C3CC3)c2)CC1)c1ccc(F)cc1 [Example 551]
54 | 24.7 | CCC(=O)Nc1cccc(C2CCN(CCCCC(=O)c3cccc([N+](=O)[O-])c3)CC2)c1 [Example 552]
